Reference: patent US10072011B2, “Substituted bridged urea analogs as sirtuin modulators” (GlaxoSmithKline Intellectual Property (No.2) Limited, priority 2014, dated 2018)
Read-outs that look alike come from different tables or passages of the source.

Target: T1, SIRT1 (Homo sapiens, UniProt Q96EB6)
T1 sequence (Q96EB6 1-747): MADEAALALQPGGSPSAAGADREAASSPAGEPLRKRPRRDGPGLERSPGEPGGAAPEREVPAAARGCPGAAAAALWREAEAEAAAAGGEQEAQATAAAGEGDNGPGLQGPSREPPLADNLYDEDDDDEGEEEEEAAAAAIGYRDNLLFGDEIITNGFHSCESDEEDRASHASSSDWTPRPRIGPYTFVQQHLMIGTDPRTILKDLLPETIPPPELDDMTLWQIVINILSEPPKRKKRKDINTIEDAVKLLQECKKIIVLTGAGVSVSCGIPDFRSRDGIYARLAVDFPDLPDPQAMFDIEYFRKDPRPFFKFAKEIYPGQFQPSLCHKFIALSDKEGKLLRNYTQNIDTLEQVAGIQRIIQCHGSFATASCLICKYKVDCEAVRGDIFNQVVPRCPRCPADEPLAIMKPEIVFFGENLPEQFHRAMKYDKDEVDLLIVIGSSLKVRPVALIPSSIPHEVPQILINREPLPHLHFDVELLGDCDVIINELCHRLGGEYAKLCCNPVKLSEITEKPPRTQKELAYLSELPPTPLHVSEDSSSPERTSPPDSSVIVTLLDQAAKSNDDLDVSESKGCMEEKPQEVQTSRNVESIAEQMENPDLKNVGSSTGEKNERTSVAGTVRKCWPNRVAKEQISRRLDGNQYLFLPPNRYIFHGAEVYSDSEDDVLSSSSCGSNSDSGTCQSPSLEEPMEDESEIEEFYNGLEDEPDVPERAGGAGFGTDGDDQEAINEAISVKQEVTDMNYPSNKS
Assay: Trp mass spectrometry assay of SIRT1 activation (Ac-R-H-K-K(Ac)-W-NH2 peptide)
Assay type: biochemical
Conditions: for Emax: 25 min, read-out: TRP MAX RESP (percent maximum fold activation)
Summary of the method: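 N-terminal His-tagged human SIRT1, expressed in BL21(DE3) and purified, was incubated 25 min with an acetylated Trp peptide and NAD plus test compound at varying concentrations, then quenched with formic acid. OAADPR or deacetylated peptide was quantified by mass spectrometry versus compound-free control; EC1.5 is the concentration giving 50% activity increase, with percent maximum activation.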

[1] = Trp peptide 0.5 μM, 120 μM βNAD+, 10 nM SIRT1, 25 min at 25° C., relative to control (100%)
[2] = Trp peptide 0.5 μM, 120 μM βNAD+, 10 nM SIRT1, 25 min at 25° C.

| Emax [1] [%] | TRP Activity (EC1.5, concentration of test compound that results in 150% activation of SIRT1) [2] | SMILES | Emax [%] |
| --- | --- | --- | --- |
| > 150 | B (EC1.5 1-25 μM) | O=C(NC1CC1)c1ccc2c(n1)N(C(=O)Nc1cc(OC[C@H](O)CO)ccn1)[C@H]1CCN2C1 [Example 24, (4S)—N7-cyclopropyl-N5-(4-((R)-2,3-dihydroxypropoxy)pyridin-2-yl)-3,4-dihydro-1,4-methanopyrido[2,3-b][1,4]diazepine-5,7(2H)-dicarboxamide] | – |
| > 150 | B (EC1.5 1-25 μM) | O=C(NC[C@@H]1CCCO1)c1ccc2c(n1)N(C(=O)Nc1ccccn1)[C@H]1CCN2C1 [Example 208, (4S)—N5-(pyridin-2-yl)-N7-(((S)-tetrahydrofuran-2-yl)methyl)-3,4-dihydro-1,4-methanopyrido[2,3-b][1,4]diazepine-5,7(2H)-dicarboxamide] | – |
| < 150 | A (EC1.5<1 μM) | CC(=O)Nc1ccnc(NC(=O)N2c3nc(C(=O)N[C@H](C)C(F)(F)F)ccc3N3CC[C@H]2C3)c1 [Example 320, (4S)—N5-(4-acetamidopyridin-2-yl)-N7-((R)-1,1,1-trifluoropropan-2-yl)-3,4-dihydro-1,4-methanopyrido[2,3-b][1,4]diazepine-5,7(2H)-dicarboxamide] | – |
| > 150 | B (EC1.5 1-25 μM) | C[C@@H](NC(=O)c1ccc2c(n1)N(C(=O)Nc1ncc(OC[C@@H](O)CO)cn1)[C@H]1CCN2C1)C(F)(F)F [Example 177, (4S)—N5-(5-((S)-2,3-dihydroxypropoxy)pyrimidin-2-yl)-N7-((R)-1,1,1-trifluoropropan-2-yl)-3,4-dihydro-1,4-methanopyrido[2,3-b][1,4]diazepine-5,7(2H)-dicarboxamide] | – |
| > 150 | B (EC1.5 1-25 μM) | O=C(NC1CC1)c1ccc2c(n1)N(C(=O)Nc1ncccn1)[C@H]1CCN2C1 [Example 204, (4S)—N7-cyclopropyl-N5-(pyrimidin-2-yl)-3,4-dihydro-1,4-methanopyrido[2,3-b][1,4]diazepine-5,7(2H)-dicarboxamide] | – |
| < 150 | A (EC1.5<1 μM) | C[C@@H](NC(=O)c1ccc2c(n1)N(C(=O)Nc1cc(-c3nn[nH]n3)ccn1)[C@H]1CCN2C1)C(F)(F)F [Example 308, (4S)—N5-(4-(2H-tetrazol-5-yl)pyridin-2-yl)-N7-((R)-1,1,1-trifluoropropan-2-yl)-3,4-dihydro-1,4-methanopyrido[2,3-b][1,4]diazepine-5,7(2H)-dicarboxamide] | – |
| < 150 | A (EC1.5<1 μM) | Cc1ncc(-c2ccnc(NC(=O)N3c4nc(C(=O)NCC(F)(F)F)cc(C)c4N4CC[C@H]3C4)c2)o1 [Example 293, (4S)-9-methyl-N5-(4-(2-methyloxazol-5-yl)pyridin-2-yl)-N7-(2,2,2-trifluoroethyl)-3,4-dihydro-1,4-methanopyrido[2,3-b][1,4]diazepine-5,7(2H)-dicarboxamide] | – |
| > 150 | A (EC1.5<1 μM) | O=C(N[C@H](CO)C(F)(F)F)c1ccc2c(n1)N(C(=O)Nc1cc(OC[C@H](O)CO)ccn1)[C@H]1CCN2C1 (single isomer, unassigned) [Example 92] | – |
| > 150 | B (EC1.5 1-25 μM) | O=C(NCc1nnn[nH]1)c1ccc2c(n1)N(C(=O)Nc1cc(OC[C@H](O)CO)ccn1)[C@H]1CCN2C1 [Example 256, (4S)—N7-((1H-tetrazol-5-yl)methyl)-N5-(4-((R)-2,3-dihydroxypropoxy)pyridin-2-yl)-3,4-dihydro-1,4-methanopyrido[2,3-b][1,4]diazepine-5,7(2H)-dicarboxamide] | – |
| < 150 | A (EC1.5<1 μM) | C[C@@H](NC(=O)c1ccc2c(n1)N(C(=O)Nc1cc(C(=O)NC3CC3)ccn1)[C@H]1CCN2C1)C(F)(F)F [Example 305, (4S)—N5-(4-(cyclopropylcarbamoyl)pyridin-2-yl)-N7-((R)-1,1,1-trifluoropropan-2-yl)-3,4-dihydro-1,4-methanopyrido[2,3-b][1,4]diazepine-5,7(2H)-dicarboxamide] | – |
| > 150 | A (EC1.5<1 μM) | O=C(NCC(F)(F)F)c1ccc2c(n1)N(C(=O)Nc1cnc(OC[C@H](O)CO)cn1)[C@H]1CCN2C1 [Example 95, (4S)—N5-(5-((R)-2,3-dihydroxypropoxy)pyrazin-2-yl)-N7-(2,2,2-trifluoroethyl)-3,4-dihydro-1,4-methanopyrido[2,3-b][1,4]diazepine-5,7(2H)-dicarboxamide] | – |
| > 150 | A (EC1.5<1 μM) | O=C(NC[C@@H](O)C(F)(F)F)c1ccc2c(n1)N(C(=O)Nc1ccccn1)[C@H]1CCN2C1 [Example 34, (4S)—N5-(pyridin-2-yl)-N7-((R)-3,3,3-trifluoro-2-hydroxypropyl)-3,4-dihydro-1,4-methanopyrido[2,3-b][1,4]diazepine-5,7(2H)-dicarboxamide] | – |
| > 150 | A (EC1.5<1 μM) | C[C@@H](NC(=O)c1ccc2c(n1)N(C(=O)Nc1cc(N3CCOC3=O)ccn1)[C@H]1CCN2C1)C(F)(F)F [Example 165, (4S)—N5-(4-(2-oxooxazolidin-3-yl)pyridin-2-yl)-N7-((R)-1,1,1-trifluoropropan-2-yl)-3,4-dihydro-1,4-methanopyrido[2,3-b][1,4]diazepine-5,7(2H)-dicarboxamide] | – |
| > 150 | A (EC1.5<1 μM) | Cc1ncc(-c2ccnc(NC(=O)N3c4nc(C(=O)N[C@H](CO)C(F)(F)F)ccc4N4CC[C@H]3C4)c2)o1 (single isomer, unassigned) [Example 125] | – |
| > 150 | A (EC1.5<1 μM) | C[C@@H](NC(=O)c1ccc2c(n1)N(C(=O)Nc1cccc(OC[C@@H](O)CO)n1)[C@H]1CCN2C1)C(F)(F)F [Example 144, (4S)—N5-(6-((S)-2,3-dihydroxypropoxy)pyridin-2-yl)-N7-((R)-1,1,1-trifluoropropan-2-yl)-3,4-dihydro-1,4-methanopyrido[2,3-b][1,4]diazepine-5,7(2H)-dicarboxamide] | – |
| < 150 | A (EC1.5<1 μM) | Cc1cc2c(nc1C(=O)N[C@H](C)C(F)(F)F)N(C(=O)Nc1cc(OC[C@H](O)CO)ccn1)[C@H]1CCN2C1 [Example 291, (4S)—N5-(4-((R)-2,3-dihydroxypropoxy)pyridin-2-yl)-8-methyl-N7-((R)-1,1,1-trifluoropropan-2-yl)-3,4-dihydro-1,4-methanopyrido[2,3-b][1,4]diazepine-5,7(2H)-dicarboxamide] | – |
| > 150 | A (EC1.5<1 μM) | Cc1ncc(-c2ccnc(NC(=O)N3c4nc(C(=O)NCC(F)(F)F)ccc4N4CC[C@H]3C4)n2)o1 [Example 157, (4S)—N5-(4-(2-methyloxazol-5-yl)pyrimidin-2-yl)-N7-(2,2,2-trifluoroethyl)-3,4-dihydro-1,4-methanopyrido[2,3-b][1,4]diazepine-5,7(2H)-dicarboxamide] | – |
| > 150 | B (EC1.5 1-25 μM) | C=CCNC(=O)c1ccc2c(n1)N(C(=O)Nc1cc(OC[C@H](O)CO)ccn1)[C@H]1CCN2C1 [Example 178, (4S)—N7-allyl-N5-(4-((R)-2,3-dihydroxypropoxy)pyridin-2-yl)-3,4-dihydro-1,4-methanopyrido[2,3-b][1,4]diazepine-5,7(2H)-dicarboxamide] | – |

| SMILES | Emax [1] [%] | TRP Activity (EC1.5, concentration of test compound that results in 150% activation of SIRT1) [2] | Emax [%] |
| --- | --- | --- | --- |
| Cn1nccc(NC(=O)N2c3nc(C(=O)NCC(F)(F)F)ccc3N3CC[C@H]2C3)c1=O [Example 121, (4S)—N5-(2-methyl-3-oxo-2,3-dihydropyridazin-4-yl)-N7-(2,2,2-trifluoroethyl)-3,4-dihydro-1,4-methanopyrido[2,3-b][1,4]diazepine-5,7(2H)-dicarboxamide] | – | A (EC1.5<1 μM) | > 150 |
| O=C(NCC(F)(F)F)c1ccc2c(n1)N(C(=O)Nc1cnccn1)[C@H]1CCN2C1 [Example 63, (4S)—N5-(pyrazin-2-yl)-N7-(2,2,2-trifluoroethyl)-3,4-dihydro-1,4-methanopyrido[2,3-b][1,4]diazepine-5,7(2H)-dicarboxamide] | – | A (EC1.5<1 μM) | > 150 |
